According to the METLIN SMRT retention time set (Domingo-Almenara et al. 2019):

Assay: gradient 5% acetonitrile 3 min, to 50% in 2 min, to 85% in 15 min, held 3 min, 100 µL/min
Settings: column: Zorbax Extend-C18 2.1 x 50 mm; eluents: water / acetonitrile, 0.1% formic acid
Summary of the method: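 A Zorbax Extend-C18 column (2.1 × 50 mm, 1.8 μm) run at 100 μL/min with water and acetonitrile, both containing 0.1% formic acid, separated mixtures of ~100 pure standards. The HPLC was coupled to a quadrupole time-of-flight mass spectrometer operated in positive and negative ionization mode, with dead and dwell volumes of 40 μL and 900 μL. Each retention time was taken from a computationally picked adduct peak that was then manually inspected.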

| SMILES | RP-LC retention time [s] |
| --- | --- |
| O=C(NCCC1=CCCCC1)c1nc(-c2ccnc(N3CCOCC3)c2)no1 | 962 |
| CC1Cc2ccccc2N1C(=O)c1ccc(=O)n(CCC(=O)NC2CCCCCCC2)n1 (stereo not drawn) | 895 |
| O=C(NC1CC1)c1ccc2ncnc(N3CCCCC3)c2c1 | 580 |
| O=C(Nc1cnc(N2CCCC2)nc1)c1ccc(Br)cc1 | 796 |
| Cc1cc(OCC(=O)NCc2ccc3c(c2)OCO3)nc(N2CCCCCC2)n1 | 594 |
| CCSc1ccccc1C(=O)NCC1(CO)CC1 | 640 |
| COc1cccc(NC(=O)NCCn2c(C(F)(F)F)nc3cccnc32)c1 | 698 |
| CCOc1ccc2nc(Nc3ncc4c(n3)CCCC4=O)nc(C)c2c1 | 588 |
| Cc1ccc(NC(=O)Cn2cc3c(n2)CCC(C)C3)c(Cl)c1 (stereo not drawn) | 1110 |
| CC#CCOC(=O)c1c(C)nc2sc3c(c2c1N)CCC(O)C3 (stereo not drawn) | 662 |
| CCOC(=O)C1CCN(C(=O)CN2C(=O)COc3ccc(C(=O)N(C)C)cc32)CC1 | 648 |
| Cc1ccc2c(c1)C1CC(C)(O2)N(c2cccc(C(=O)NCc3ccco3)c2)C(=O)N1 (stereo not drawn) | 801 |
| O=C(NCC(F)(F)F)C1CCN(S(=O)(=O)CCN2C(=O)CCCC2=O)CC1 | 637 |
| CC(C)Oc1ccc(CNC(=O)CN2CCN(Cc3ccc(F)cc3)C2=O)cc1 | 865 |
| O=C(NC(CO)C(O)c1ccc([N+](=O)[O-])cc1)C(Cl)Cl (stereo not drawn) | 735 |
| CC(=O)N1CCN(c2nc3c(s2)CC(C(=O)NCc2cc(F)cc(F)c2)CC3)CC1 (stereo not drawn) | 597 |
| O=C(c1n[nH]c2ccccc12)N1CCC(c2noc(C3CC3)n2)C1 (stereo not drawn) | 720 |
| CN(C)c1cnc(-n2cc(NC(=O)c3cccc(N(C)C)c3)cn2)nc1 | 672 |
| O=C(NCc1ccc(Br)cc1)C1CCCN(c2cnc3nccnc3c2)C1 (stereo not drawn) | 755 |

| SMILES | RP-LC retention time [s] |
| --- | --- |
| Cc1sc2ccn(CC(C)C)c(=O)c2c1C(=O)NCc1ccc(N(C)C)cc1 | 652 |
| O=C(CSc1nc(=O)n2cc(Cl)ccc2n1)Nc1ccc(OC(F)(F)F)cc1 | 820 |
| CCN(CC)CCNC(=O)CSc1cc(=O)n(C)c2cc(Cl)ccc12 | 622 |
| CCc1nnc(-c2cc(C)n(CC(=O)Nc3cc(F)cc(F)c3)c2C)o1 | 844 |
| O=C(CSc1ccc(N2CCCC(C(=O)NC3CC3)C2)nn1)NCc1ccccc1Cl (stereo not drawn) | 635 |
| CN(C)CCNCc1ccc(-c2ccc(Br)cc2)o1 | 598 |
| Cc1nc(C)c(-c2ccc(=O)n(CCNC(=O)c3ccno3)n2)s1 | 585 |
| CN(Cc1ccco1)C(=O)C1c2ccccc2CC(=O)N1Cc1ccccc1 (stereo not drawn) | 861 |
| CCC(=O)N1CCN(c2nc(CC(C)C)c3c(c2C#N)CC(C)(C)OC3)CC1 | 1110 |
| O=C(Nc1ccc(F)cc1)OC1CCCC(NC(=O)c2ccc(Br)o2)C1 (stereo not drawn) | 853 |
| Cn1nc(C(=O)N2CCCC(C(=O)Nc3ccccc3)C2)c2c1CCN(C(=O)C(C)(C)C)C2 (stereo not drawn) | 745 |
| CC(C)CCNC(=O)N1C[C@@H]2CCCN3CCC[C@@H]([C@H]23)[C@H]1CCCC(=O)NCC1CC1 | 625 |
| CCn1c(C)c(C(=O)C(C)N(CCC(C)C)C(=O)c2ccccc2Cl)c(C)c1C(=O)OC (stereo not drawn) | 1210 |
| CNC(=O)CCc1nc2ccccc2n(CC(=O)NCc2ccccc2Br)c1=O | 700 |
| COc1ccc(C2Cn3nnc(-c4nc(-c5cccc(F)c5)no4)c3CO2)cc1 (stereo not drawn) | 1100 |
| Cc1noc(-c2ccc(OC3CN(C(=O)NC4CCCC4)C3)cc2)n1 | 801 |
| CCNc1cc(N2CCCC(CCC(=O)NCCOC)C2)ncn1 (stereo not drawn) | 580 |
| O=C(NCCCN1CCCCCC1)c1ccc2c(c1)NC(=O)C1CCCCN21 (stereo not drawn) | 609 |

The next lines start with the values.

| RP-LC retention time [s] | SMILES |
| --- | --- |
| 1160 | COc1ccccc1N1CCN(S(=O)(=O)c2cc(-c3csc(C)n3)ccc2C)CC1 |
| 761 | COc1ccc(-c2nc3cc(C)ccn3c2Nc2ccc(C)cc2)cc1 |
| 947 | COc1ccc(-c2noc(C3CC(=O)N(c4ccc(OC)c(Cl)c4)C3)n2)cc1 (stereo not drawn) |
| 1220 | COc1cccc(-n2c(=O)c(C(=O)Nc3ccccc3)c(O)c3cccnc32)c1 |
| 700 | Cc1cccn2cc(-c3cccc(NS(=O)(=O)c4ccc(Br)cc4)c3)nc12 |
| 697 | O=C(O)c1cccc(Nc2c(-c3ccccc3)nc3cnccn23)c1 |
| 749 | COc1ccc(C2(CNC(=O)c3cc(-c4ccccc4)n[nH]3)CCOCC2)cc1 |
| 675 | Cc1cc(C)c2c(-n3cccc3)c(C(=O)N3CCN(c4ccccn4)CC3)sc2n1 |
| 967 | COc1ccc(NC(=O)Cn2cnc3c(sc4nc(-c5ccccc5)ccc43)c2=O)cc1 |
| 831 | O=C(Nc1ccc(OC(F)(F)F)cc1)C1CCN(S(=O)(=O)c2ccc3[nH]c(=O)ccc3c2)CC1 |
| 874 | COC(=O)c1ccccc1Nc1c(-c2ccc(N3CCOCC3)cc2)nc2cnccn12 |
| 971 | CCc1nn2c(CNS(=O)(=O)c3cccc(Cl)c3)c(-c3ccccc3)nc2s1 |
| 935 | CCOc1ccc(N2CC(c3nnc(NC(=O)c4ccc(C(C)(C)C)cc4)o3)CC2=O)cc1 (stereo not drawn) |
| 1140 | O=C(O)Cc1sc(-c2ccccc2)nc1-c1ccc(Cl)cc1 |
| 1000 | Cc1ccc(NC(=O)Nc2nccn(-c3cccc(Cl)c3)c2=O)cc1F |
| 1140 | C=C1CC2(OC1=O)c1ccccc1CCc1ccccc12 |
| 607 | Cc1sc(-c2nnc(C(=O)N3CCCC3)o2)cc1S(=O)(=O)N1CCN(C)CC1 |
| 993 | CCCN(c1ccccc1F)S(=O)(=O)c1ccc2c(c1)N(C(C)=O)CCCS2 |
| 674 | Cc1cccc(C(=O)Nc2c(-c3ccccc3)nc3cc(C)ccn23)c1 |
| 828 | CCOc1ccccc1C(=O)N1CCc2c(c(-c3nc(C4CC4)no3)nn2C)C1 |
| 568 | Cc1cc(C)c2c(N3CCCCC3)nc(C(=O)NC(C)c3cccnc3)nc2n1 (stereo not drawn) |
| 626 | Cc1nc2sccn2c1-c1nnc(SCc2ccc([N+](=O)[O-])cc2)n1C |
| 1230 | Cc1sc(-c2cc(C(F)(F)F)[nH]n2)cc1S(=O)(=O)N1CCN(c2cccc(Cl)c2)CC1 |
| 1130 | O=S(=O)(c1ccc(F)c(Cl)c1)N1CCc2nc(-c3ccccc3)ncc2C1 |
| 608 | Cc1ccc(F)cc1S(=O)(=O)N1CCn2c(nnc2C2CCN(C(C)C)C2)C1 (stereo not drawn) |
| 838 | CN1C(=O)C2(CCN(C(=O)COc3ccc(Cl)cc3)C2)c2ccccc21 (stereo not drawn) |

| RP-LC retention time [s] | SMILES |
| --- | --- |
| 793 | COc1ccc(CNC(=O)CN2CCN(Cc3ccc(F)cc3)C2=O)c(OC)c1 |
| 1070 | COc1cccc(C(=O)Nc2nc(-c3ccc(OC)c([N+](=O)[O-])c3)c(C)s2)c1 |
| 643 | Cc1ccc2[nH]c3c(c2c1)CCNC31C(=O)Nc2ccccc21 (stereo not drawn) |
| 700 | COC(=O)c1ccc(Cl)cc1NC(=O)N1CCN(C)c2ncccc21 |
| 822 | CC(=O)c1ccc(NS(=O)(=O)c2ccc3ccccc3c2)cc1 |
| 950 | CCCn1cc(S(=O)(=O)NCc2cccc(Cl)c2)c2cccnc21 |
| 624 | CCOc1ccc(NC(=O)Cn2ncc3c(N4CCN(c5ccccn5)CC4)ncnc32)cc1 |
| 818 | CC(Oc1ccccc1)C(=O)N1CCc2c(c(C(=O)NCc3ccc4c(c3)OCO4)nn2C)C1 (stereo not drawn) |
| 1170 | Cc1ccc(Nc2c(-c3ccc(Br)cc3)nc3cnccn23)c(C)c1 |
| 943 | Cc1ccc(-c2cc3n(n2)CCCN(C(=O)CCC(=O)c2ccc(F)cc2)C3)cc1 |
| 802 | O=C(Cn1nc(S(=O)(=O)c2cccc(F)c2)ccc1=O)N1CCN(c2ccccc2)CC1 |
| 742 | Cc1noc(-c2cccnc2N2CCN(C(c3ccccc3)c3ccccc3)CC2)n1 |
| 586 | COc1cccc2cc(C(=O)NC3CNC(=O)C3)oc12 (stereo not drawn) |
| 1140 | Cc1cccc(Nc2c(-c3ccc(Br)cc3)nc3cnccn23)c1C |
| 684 | COc1ccc(-c2cn3c(CC(=O)Nc4ccc5c(c4)OCCO5)csc3n2)cc1OC |
| 900 | COc1ccc(-c2noc(Cn3nc(-c4ccccc4)ccc3=O)n2)cc1OC |
| 641 | O=C(NCc1csc(-c2ccccc2)n1)C1CCCN(c2ccc(-c3ccco3)nn2)C1 (stereo not drawn) |
| 781 | CC(Nc1nc(N2CCCC2)nc2ccccc12)c1ccccc1 (stereo not drawn) |
| 1270 | O=c1c2sccc2n(Cc2nc(-c3ccc(C(F)(F)F)cc3)no2)c(=O)n1CCc1ccccc1 |
| 819 | CCc1nc2cc(-c3noc(CNC(=O)Cc4ccccc4)n3)ccc2o1 |
| 656 | Cc1ccc(C)c(NC(=O)Cn2c(N3CCCC3)nc(C)cc2=O)c1 |
| 1140 | CCN(CC)S(=O)(=O)c1cc(-c2nnc(-c3ccc(OC)cc3)o2)ccc1Cl |
| 601 | Cc1nn(-c2ccccc2)c2c1nc(CCC(=O)N1CCN(c3ccccn3)CC1)c(=O)n2C |
| 730 | CCNC(=O)C1CCCN(C(=O)Nc2ccc(NC(=O)Nc3ccc(C)cc3C)cc2)C1 (stereo not drawn) |
| 836 | Cc1nc(OCC(=O)Nc2cc(Cl)ccc2Cl)c2ccccc2n1 |
